# Results from PubChem BioAssay AID1963960 (Molecular Pharmacology Branch, DTP, NCI, 2024).
# System: MDA-MB-468 spheroids with HUVEC/MSC, viability
# Test: Anticancer human tumor MDA-MB-468 cell line growth inhibition [PI3K];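 also: spheroids exposed to agents for seven days before readout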;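 as to viability, T/C: 100% = DMSO vehicle control viability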
# Conditions: for IC50: curve of first compound; for viability, T/C: stronger effect = lower value
# Procedure, shortened: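 Three cell types, namely tumor cells, endothelial cells and mesenchymal stem cells, formed each spheroid. Combinations with four PI3K inhibitors were screened at clinically achievable concentrations decreasing by half-log, and spheroid viability was recorded.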
# [1] = second compound 0.00316 µM, first compound 0.0316 µM
# [2] = second compound 0.00316 µM, first compound 0.1 µM
# [3] = second compound 0.00316 µM, first compound 0.316 µM
# [4] = second compound 0.00316 µM, first compound 1 µM
# [5] = second compound 0.00316 µM, first compound 3.16 µM
# [6] = second compound 0.00316 µM, first compound 10 µM
# [7] = second compound 0.01 µM, first compound 0.0316 µM
# [8] = second compound 0.01 µM, first compound 0.1 µM
# [9] = second compound 0.01 µM, first compound 0.316 µM
# [10] = second compound 0.01 µM, first compound 1 µM
# [11] = second compound 0.01 µM, first compound 3.16 µM
# [12] = second compound 0.01 µM, first compound 10 µM
# [13] = second compound 0.0316 µM, first compound 0.0316 µM
# [14] = second compound 0.0316 µM, first compound 0.1 µM
# [15] = second compound 0.0316 µM, first compound 0.316 µM
# [16] = second compound 0.0316 µM, first compound 1 µM
# [17] = second compound 0.0316 µM, first compound 3.16 µM
# [18] = second compound 0.0316 µM, first compound 10 µM
# [19] = second compound 0.1 µM, first compound 0.0316 µM
# [20] = second compound 0.1 µM, first compound 0.1 µM
# [21] = second compound 0.1 µM, first compound 0.316 µM
# [22] = second compound 0.1 µM, first compound 1 µM
# [23] = second compound 0.1 µM, first compound 3.16 µM
# [24] = second compound 0.1 µM, first compound 10 µM
# [25] = second compound 0.316 µM, first compound 0.0316 µM
# [26] = second compound 0.316 µM, first compound 0.1 µM
# [27] = second compound 0.316 µM, first compound 0.316 µM
# [28] = second compound 0.316 µM, first compound 1 µM
# [29] = second compound 0.316 µM, first compound 3.16 µM
# [30] = second compound 0.316 µM, first compound 10 µM
# [31] = second compound 1 µM, first compound 0.0316 µM
# [32] = second compound 1 µM, first compound 0.1 µM
# [33] = second compound 1 µM, first compound 0.316 µM
# [34] = second compound 1 µM, first compound 1 µM
# [35] = second compound 1 µM, first compound 3.16 µM
# [36] = second compound 1 µM, first compound 10 µM
smiles,measurement,setting,value
CC(Cn1ccc(-c2ccc(C#N)c(Cl)c2)n1)NC(=O)c1cc(C(C)O)[nH]n1 (centres undefined) + COc1c(OCCCN2CCOCC2)ccc2c3n(c(=NC(=O)c4cnc(N)nc4)nc12)CCN3,IC50,second compound 0.00316 µM,> 10000 nM
same,IC50,second compound 0.01 µM,> 10000 nM
same,IC50,second compound 0.0316 µM,> 10000 nM
same,IC50,second compound 0.1 µM,> 10000 nM
same,IC50,second compound 0.316 µM,< 31.6 nM
same,IC50,second compound 1 µM,< 31.6 nM
same,"viability, T/C",[1],88.8%
same,"viability, T/C",[2],90.3%
same,"viability, T/C",[3],94.3%
same,"viability, T/C",[4],92.3%
same,"viability, T/C",[5],90.5%
same,"viability, T/C",[6],75.3%
same,"viability, T/C",[7],92.2%
same,"viability, T/C",[8],91.3%
same,"viability, T/C",[9],83.4%
same,"viability, T/C",[10],95.3%
same,"viability, T/C",[11],85.3%
same,"viability, T/C",[12],63.7%
same,"viability, T/C",[13],83.6%
same,"viability, T/C",[14],75.7%
same,"viability, T/C",[15],87.1%
same,"viability, T/C",[16],80.5%
same,"viability, T/C",[17],80.9%
same,"viability, T/C",[18],62.8%
same,"viability, T/C",[19],55.8%
same,"viability, T/C",[20],57%
same,"viability, T/C",[21],60.9%
same,"viability, T/C",[22],59.3%
same,"viability, T/C",[23],56%
same,"viability, T/C",[24],62.3%
same,"viability, T/C",[25],26.9%
same,"viability, T/C",[26],24.4%
same,"viability, T/C",[27],27.3%
same,"viability, T/C",[28],26.1%
same,"viability, T/C",[29],26.7%
same,"viability, T/C",[30],27.2%
same,"viability, T/C",[31],2.86%
same,"viability, T/C",[32],2.48%
same,"viability, T/C",[33],2.64%
same,"viability, T/C",[34],3.21%
same,"viability, T/C",[35],3.72%
same,"viability, T/C",[36],2.3%
CC1(C)CCC(Nc2ncc(C(F)(F)F)c(-c3c[nH]c4c(P(C)(C)=O)c(C#N)ccc34)n2)CN1 (centres undefined) + COc1c(OCCCN2CCOCC2)ccc2c3n(c(=NC(=O)c4cnc(N)nc4)nc12)CCN3,IC50,second compound 0.00316 µM,< 31.6 nM
same,IC50,second compound 0.01 µM,< 31.6 nM
same,IC50,second compound 0.0316 µM,< 31.6 nM
same,IC50,second compound 0.1 µM,< 31.6 nM
same,IC50,second compound 0.316 µM,< 31.6 nM
same,IC50,second compound 1 µM,< 31.6 nM
same,"viability, T/C",[1],9.69%
same,"viability, T/C",[2],8.09%
same,"viability, T/C",[3],7.16%
same,"viability, T/C",[4],7.44%
same,"viability, T/C",[5],6.56%
same,"viability, T/C",[6],1.22%
same,"viability, T/C",[7],8.56%
same,"viability, T/C",[8],7.53%
same,"viability, T/C",[9],6.69%
same,"viability, T/C",[10],6.66%
same,"viability, T/C",[11],6.59%
same,"viability, T/C",[12],1.41%
same,"viability, T/C",[13],8.31%
same,"viability, T/C",[14],8.47%
same,"viability, T/C",[15],7.44%
same,"viability, T/C",[16],6.08%
same,"viability, T/C",[17],6.49%
same,"viability, T/C",[18],1.91%
same,"viability, T/C",[19],9.69%
same,"viability, T/C",[20],8.3%
same,"viability, T/C",[21],7.97%
same,"viability, T/C",[22],6.87%
same,"viability, T/C",[23],6%
same,"viability, T/C",[24],2.2%
same,"viability, T/C",[25],8.16%
same,"viability, T/C",[26],6.87%
same,"viability, T/C",[27],6.83%
same,"viability, T/C",[28],5.84%
same,"viability, T/C",[29],4.35%
same,"viability, T/C",[30],1.03%
same,"viability, T/C",[31],4.03%
same,"viability, T/C",[32],3.59%
same,"viability, T/C",[33],3.45%
same,"viability, T/C",[34],4.91%
same,"viability, T/C",[35],3.08%
same,"viability, T/C",[36],0.82%
